Some test systems named below: 786-0; A549; COLO 205; DU-145; HCT-116; HOP-62; HOP-92; HT-29; Hs-578T; MCF7; NCI-H522; SF-268; SF-539; SK-OV-3; TK-10; UACC-62; K562; LOX IMVI; RPMI-8226; SK-MEL-5.
What all share (test): NCI-60 cell line screen, 48 h

The values that follow come from ChEMBL document CHEMBL1201862, “PubChem BioAssay data set” (2004).

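Where inhibition never reached the appropriate level, the endpoint shown equals the highest concentration tested. Otherwise, values were interpolated linearly from a five-concentration, 48-hour dose response in 96-well plates. GI50: concentration for 50% inhibition of growth.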 Activity calls are given as the source filed them. Cut-off read from the data, not from the text of the source: active = GI50 up to about 1.1 µM and inactive = higher.

Consider `Oc1ccc(C[C@@H]2CN[C@H](Cc3ccc(O)c(Br)c3)CN2)cc1`, for which the GI50 in the test with 786-0, with A549, with COLO 205, in the test on DU-145, with HCT-116 and with HOP-62 was > 100 µM (inactive) in each case. For the same compound, the GI50 in the test on HOP-92, in the test with HT-29, with Hs-578T, in the test on MCF7, in the test on NCI-H522 and in the test on SF-268 was > 100 µM (inactive) each time. For the same compound, the GI50 with SF-539, with SK-OV-3, in the test on TK-10 and with UACC-62 was > 100 µM (inactive) in each case.

Consider `[N-]=[N+]=NC1=C(c2ccccn2)C(=O)c2cccc3cccc1c23`, for which the GI50 with 786-0 was 25.2 µM (inactive); in the test with A549, 27.7 µM (inactive); in the test with COLO 205, 76.9 µM (inactive); in the test with DU-145 it was 39.7 µM (inactive); in the test on HCT-116, 8.63 µM (inactive); in the test on HOP-62 it was 19.7 µM (inactive). Also, the GI50 in the test with HOP-92 is 29.9 µM (inactive); in the test on HT-29 it was 21.1 µM (inactive); in the test with Hs-578T, 27 µM (inactive); with K562, 23.2 µM (inactive); in the test with LOX IMVI, 8.65 µM (inactive); in the test on MCF7, 23.6 µM (inactive). The GI50 was 34 µM (inactive) with RPMI-8226; 12 µM (inactive) in the test with SF-268; 32.8 µM (inactive) in the test on SF-539; 6.84 µM (inactive) in the test with SK-MEL-5; 36.7 µM (inactive) in the test with SK-OV-3; 41.7 µM (inactive) with TK-10. Further, the GI50 with UACC-62 is 20 µM (inactive).

Take `COC(=O)C1CC(C=O)=C(SC)N1` (stereo not given): the GI50 with 786-0, in the test on A549, in the test on COLO 205, in the test with DU-145, with HCT-116 and with HOP-62 was > 50 µM (inactive) throughout. The GI50 in the test on HOP-92, in the test on HT-29, in the test with Hs-578T, with K562, in the test with MCF7 and with NCI-H522 was > 50 µM (inactive) each time. Further, the GI50 in the test with RPMI-8226, with SF-268, in the test on SK-MEL-5, in the test on SK-OV-3, in the test with TK-10 and in the test with UACC-62 was > 50 µM (inactive) throughout.

With `CN1C(=O)C(C(N)=O)C2CC1(C)Oc1ccccc12` (stereo not given), the GI50 with 786-0, in the test with A549, with COLO 205, in the test with DU-145, in the test on HCT-116 and in the test with HOP-62 was > 100 µM (inactive) throughout. The GI50 in the test on HOP-92, with HT-29, in the test on Hs-578T, in the test on K562, with LOX IMVI and in the test with MCF7 was > 100 µM (inactive) throughout. Besides, the GI50 in the test on NCI-H522, in the test on RPMI-8226, with SF-268, with SK-MEL-5, with SK-OV-3 and with UACC-62 was > 100 µM (inactive) in each case.

As to `Nc1nc2c(ncn2CC2CCC(CO)C2)c(=O)[nH]1` (stereo not given), the GI50 in the test on 786-0, in the test on A549, in the test on COLO 205, in the test with DU-145, in the test with HCT-116 and in the test with HOP-62 was > 100 µM (inactive) throughout. The GI50 with HOP-92, in the test with Hs-578T, with K562, with LOX IMVI, with MCF7 and in the test on RPMI-8226 was > 100 µM (inactive) each time. In addition, the GI50 with SF-268 was > 100 µM (inactive); with SF-539, > 100 µM (inactive); with SK-MEL-5, > 100 µM (inactive); in the test with SK-OV-3 it was > 100 µM (inactive); in the test on TK-10 it was > 100 µM (inactive); in the test on UACC-62, 29.2 µM (inactive).

In the case of `CSc1nc(NC(C)C)c2c(n1)Sc1nc3ccccc3n1N=C2`, the GI50 with 786-0 is 4.23 µM (inactive); in the test with A549 it was 5.33 µM (inactive); with COLO 205, 7.69 µM (inactive); in the test on DU-145, 12.7 µM (inactive); in the test on HCT-116, 7.01 µM (inactive); in the test with HOP-62, 5.66 µM (inactive). In addition, the GI50 in the test on HOP-92 is 11.1 µM (inactive); in the test on HT-29, 21 µM (inactive); in the test with Hs-578T it was 20 µM (inactive); in the test with K562, 50.9 µM (inactive); with LOX IMVI, 10.7 µM (inactive); with MCF7 it was 20.3 µM (inactive). The GI50 was 22.9 µM (inactive) with NCI-H522; 0.335 µM (active) with RPMI-8226; 25.7 µM (inactive) in the test on SF-268; 0.69 µM (active) in the test on SK-MEL-5; 11.1 µM (inactive) in the test with SK-OV-3; 13.8 µM (inactive) in the test on TK-10. The GI50 in the test on UACC-62 is 6.62 µM (inactive).

For the compound `COc1cc(NS(C)(=O)=O)ccc1N1Cc2c[nH]c3ccc4nccc1c4c23`, the GI50 is 30.8 µM (inactive) with 786-0; > 100 µM (inactive) in the test with A549; 26.7 µM (inactive) in the test on COLO 205; 42.5 µM (inactive) in the test with DU-145; 26.6 µM (inactive) in the test with HCT-116; 54.2 µM (inactive) with HOP-62. Moreover, the GI50 was 26.1 µM (inactive) in the test on HOP-92; 30.8 µM (inactive) in the test with HT-29; 31.1 µM (inactive) with Hs-578T; 22.5 µM (inactive) in the test on K562; 18.2 µM (inactive) with LOX IMVI; 36.6 µM (inactive) in the test with MCF7. Also, the GI50 in the test on NCI-H522 was 15.5 µM (inactive); in the test with RPMI-8226, 17.5 µM (inactive); in the test with SF-268 it was 19.1 µM (inactive); in the test with SK-MEL-5, 23.4 µM (inactive); in the test with TK-10 it was 39.8 µM (inactive); with UACC-62 it was 67.8 µM (inactive).

On to `NC(=S)Nc1ccc2c(c1)oc1ccccc12`, for which the GI50 with 786-0, in the test on A549, in the test on COLO 205, in the test on DU-145, in the test on HCT-116 and in the test on HOP-62 was > 100 µM (inactive) each time. Also, the GI50 was > 100 µM (inactive) in the test with HOP-92; > 100 µM (inactive) with HT-29; > 100 µM (inactive) in the test on Hs-578T; > 100 µM (inactive) in the test on K562; > 100 µM (inactive) with LOX IMVI; 8.73 µM (inactive) in the test with MCF7. Also, the GI50 in the test on NCI-H522 was 7.57 µM (inactive); in the test on RPMI-8226, 11.7 µM (inactive); in the test on SF-268, > 100 µM (inactive); with SK-MEL-5 it was 18.9 µM (inactive); in the test with SK-OV-3, > 100 µM (inactive); in the test with TK-10 it was > 100 µM (inactive). Also, the GI50 in the test with UACC-62 was > 100 µM (inactive).

Turning to `COc1ccc(CC2c3cc(OC)c(OC)c(OC)c3CC[N+]2(C)C)cc1Oc1ccc(CC2c3cc4c(c(OC)c3CCN2C)OCO4)cc1` (stereo not given), the GI50 with 786-0, in the test on A549, in the test on COLO 205, in the test with DU-145, in the test with HCT-116 and with HOP-92 was > 100 µM (inactive) in each case. Moreover, the GI50 is > 100 µM (inactive) in the test with HT-29; > 100 µM (inactive) in the test with Hs-578T; 57.5 µM (inactive) in the test with K562; > 100 µM (inactive) in the test with LOX IMVI; > 100 µM (inactive) with MCF7; 97.7 µM (inactive) in the test with NCI-H522. Moreover, the GI50 in the test with SF-268 was > 100 µM (inactive); in the test on SF-539, > 100 µM (inactive); with SK-MEL-5, 96.6 µM (inactive); in the test with SK-OV-3, > 100 µM (inactive); with TK-10, > 100 µM (inactive); in the test on UACC-62, > 100 µM (inactive).

Consider `NC1c2c(Cl)sc(Cl)c2C(=O)C1O` (stereo not given), for which the GI50 in the test on 786-0 is 94.6 µM (inactive); with A549, > 100 µM (inactive); in the test on COLO 205 it was 18.2 µM (inactive); with DU-145, > 100 µM (inactive); with HCT-116 it was 29.2 µM (inactive); in the test on HOP-92, 13.1 µM (inactive). Moreover, the GI50 is 19.7 µM (inactive) in the test on HT-29; 35.1 µM (inactive) in the test on Hs-578T; 29.4 µM (inactive) in the test with K562; 23.4 µM (inactive) with LOX IMVI; 18.9 µM (inactive) with MCF7; 18.2 µM (inactive) in the test on NCI-H522. In addition, the GI50 is 43.1 µM (inactive) in the test on SF-268; 76.2 µM (inactive) in the test with SF-539; 26.9 µM (inactive) with SK-MEL-5; > 100 µM (inactive) in the test with SK-OV-3; > 100 µM (inactive) in the test with TK-10; 17.7 µM (inactive) in the test with UACC-62.

As for `O=C(NCCCCNCCCNC(=O)OCc1ccccc1)OCc1ccccc1`, the GI50 is 21.9 µM (inactive) with 786-0; 64.4 µM (inactive) with A549; 16.9 µM (inactive) with COLO 205; 73.6 µM (inactive) with DU-145; 24.5 µM (inactive) in the test on HCT-116; 27.8 µM (inactive) in the test on HOP-62. Besides, the GI50 in the test on HOP-92 is 22.7 µM (inactive); in the test with HT-29, 18 µM (inactive); in the test with Hs-578T, 31.8 µM (inactive); in the test with K562, 30.8 µM (inactive); in the test on MCF7, 24.5 µM (inactive); in the test on NCI-H522, 21.2 µM (inactive). In addition, the GI50 in the test on RPMI-8226 is 39 µM (inactive); in the test with SF-268, 69.5 µM (inactive); in the test with SF-539, 21.3 µM (inactive); in the test on SK-MEL-5, 16.9 µM (inactive); in the test with SK-OV-3, 69.7 µM (inactive); in the test on TK-10 it was 43.7 µM (inactive). Besides, in the test on UACC-62, the GI50 is 17.9 µM (inactive).
